Assay results as given in publication PMC6407204, “Oral administration of the cannabigerol derivative VCE-003.2 promotes subventricular zone neurogenesis and protects against mutant huntingtin-induced neurodegeneration” (Translational Neurodegeneration, 2019).

Experiments:
[1] = system: mutant huntingtin-induced neurodegeneration; assay: Viral model of Huntington's disease, AAV expression of mutant huntingtin (AAV-htt94Q) in mouse striatum; assay type: in vivo, C57BL/6 N mice; conditions: 10 mg/kg/day oral
Method: Male C57BL/6 N mice (10 weeks old) were housed under standard conditions (12-h light/dark cycle) in groups with access to food and water ad libitum. All experiments were performed in accordance with European Union guidelines and approved by the Animal Research Ethics Committee of Complutense and Córdoba University. Procedures were designed to minimize the number of animals used and their suffering. Constructs expressing CFP-tagged human huntingtin exon 1 harboring a pathogenic polyQ tract of 94 CAG repeats or a normal, non-pathogenic polyQ tract of 16 CAG repeats (kindly provided by Dr. José J. Lucas, Severo Ochoa Molecular Biology Center, Madrid, Spain) were employed using an AAV1/AAV2 mixed serotype, generated by polyethyleneimine transfection of HEK293T cells and subsequent purification in iodixanol gradient. Vectors were injected stereotactically (in 3 μl PBS) into the dorsal striatum in a bilateral manner at coordinates (mm to bregma): antero-posterior + 0.5, lateral ±2.5, dorso-ventral − 3.5 as previously described. VCE-003.2 (10 mg/kg) or vehicle (sesame oil) were orally administered once daily (Fig. 1), and for neurogenesis experiments BrdU (100 mg/kg) was administered i.p. twice daily on the first week after viral injection. RotaRod test was conducted prior to drug injections to avoid acute effects of the compounds under investigation. RotaRod started at 4 rpm, with an acceleration rate of 6 rpm/min until either maximum speed is reached or the mouse falls from the apparatus. Maximum time assay was 10 min. Basal RotaRod performance was determined 6 days prior to striatal injury in 3 consecutive days with 3 trials/day (30 min of rest between each trial), and groups with equivalent motor function were assigned. RotaRod test was performed during 3 consecutive days prior to sacrifice and plasma was obtained for peripheral biomarker analyses. All experiments included a minimum of 6 mice per condition. The precise number of animals analyzed in each experiment is indicated in the corresponding figure legends.
Free floating coronal brain slices (30 μm) were processed as previously described. In brief, after blocking with 10% goat serum, brain sections were incubated with the indicated primary antibodies followed by secondary antibody incubation (2 h at room temperature). The appropriate mouse, rat and rabbit highly cross-adsorbed AlexaFluor 488, AlexaFluor 594 and AlexaFluor 647 secondary antibodies (1:500; Molecular Probes, Leyden, The Netherlands) were used. Samples were subsequently incubated with DAPI (1:5000, Roche) for 10 min, washed with PBS and mounted in Mowiol. All immunofluorescence data were obtained in a blinded manner by independent observers in a minimum of 6 correlative slices, from 1-in-10 series located between − 0.4 to + 1.6 mm to bregma. The lateral SVZ zone was delineated by using DAPI-counterstained cell nuclei, and analyses were performed in the upper dorsal tier, in which positively-labelled cells and immunoreactivity were quantified not beyond 100 μm of the SVZ. Confocal fluorescence images were acquired by using LAS-X software (Wetzlar, Germany) and SP8 microscope with 2 passes by Kalman filter, a 1024X1024 collection box, and pinhole AU 1. […] Cells were quantified within a 20 × 20 μm counting frame, which randomly sampled within a 122.8 × 68.9 μm counting grid. Cells that contacted the lateral or upper exclusion plane were excluded. The total number of cells counted was divided by the number of sampled counting frames and multiplied by its size to obtain the density of positive cells. Co-localization was confirmed by orthogonal projection of 18 z-stack files (1-μm each), and data were expressed as cells/mm^2. […]

[2] = system: C-reactive protein and pentraxins 2, 3; assay: Plasma biomarkers, cytokine and adipokine proteome arrays; assay type: in vivo, C57BL/6 N mice; conditions: pooled plasma, oral treatment, htt94Q mice
Method: Plasma samples from wild-type and mutant huntingtin-expressing C57BL/6 N mice were pooled (n = 6 animals per group) and analyzed for cytokine and adipokine expression. The Proteome Profiler Mouse XL Cytokine Array and the Proteome Profiler Mouse Adipokine Array (R&D Systems) were used according to the manufacturer’s protocols to obtain protein expression profiles using 100 μl plasma samples. Spot density was determined using Quick Spots image analysis software (R&D Systems).
Supplementary file 40035_2019_148_MOESM5_ESM.pdf: Additional file 5: Effect of oral VCE-003.2 on plasmatic biomarkers. Plasma samples from the indicated groups of animals (n = 6) were pooled and subjected to mouse cytokine array (ARY028; R&D Systems) and mouse adipokine array (ARY013; R&D Systems) analysis. The relative expression of the indicated biomarkers is shown. (PDF 338 kb)

[3] = AAV-htt16Q and AAV-htt94Q mice, 30 days
[4] = AAV-htt94Q mice, 4 weeks after lesion

## CCCCCC1=C(NCC)C(=O)C(CC=C(C)CCC=C(C)C)=C(O)C1=O [VCE-003.2, 2-(3,7-dimethyl-octa-2,6-dienyl)-6-ethylamino-3-hydroxy-5-pentyl-(1,4) benzoquinone]
[1]; [3]
  doublecortin-positive neuroblasts in striatum: increased doublecortin-expressing cells
  effective neurogenesis, double-positive NeuN/BrdU neurons: effective in promoting neurogenesis
[1]; [4]
  Ascl1-positive transit amplifying progenitors: further promoted Ascl1-positive cell expansion
  proliferating SVZ neural stem cells, GFAP/Ki-67 double-labelled: increased the number of proliferating GFAP-positive cells
[1]; AAV-htt94Q mice, 14 days, vs vehicle
  motor performance, RotaRod latency to fall: performed better in the RotaRod test
[1]; AAV-htt94Q mice, 30 days after lesion
  MSN degeneration, DARPP-32 and NeuN immunofluorescence: prevented htt94Q-induced MSN degeneration
[1]; AAV-htt94Q mice, vs vehicle
  microglial activation, Iba1 immunoreactivity: reduced microglial activation
[2]
  plasma neuroinflammation biomarkers increased by htt94Q (C-reactive protein, pentraxins 2, 3): reverted
